Data on eleven molecules can be found in ChEMBL document CHEMBL1201862, “PubChem BioAssay data set” (2004).

The structures appear in SMILES notation.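 Growth conditions: 96-well plates. Treatment: test compound, 48 hours, 5 concentrations. Analysis: linear interpolation between bracketing concentrations; unreached endpoints set to highest concentration. GI50 is the concentration that inhibits growth by half.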 Activity calls are given as the source filed them. Rule as the data show it: active = GI50 up to about 1.1 µM and inactive = higher. Bounds are passed on as bounds.

Common to all, as to assay: NCI tumour cell line growth inhibition, 48 h
For assay [1], the system named is A549.
For assay [2], the system named is MCF7.
For assay [3], the system named is NCI/ADR-RES.
Assay [4] relates to PC-3.
Assay [5] concerns BT-549.
Assay [6] has as its system HT-29.
Assay [7] relates to RPMI-8226.
The subject of assay [8] is COLO 205.
Assay [9] relates to EKVX.
Assay [10] relates to HCT-116.
Assay [11] deals with OVCAR-3.
Assay [12] relates to SK-MEL-28.
Assay [13] deals with OVCAR-8.
Assay [14] relates to HOP-92.
Assay [15] relates to SK-MEL-2.
Assay [16] deals with DU-145.
Assay [17] deals with IGROV-1.
Assay [18] has as its system OVCAR-5.
Assay [19] has as its system SF-295.
Assay [20] has as its system SR.

Turning to `C/C(=N/NC(=S)N1CCN(C(=S)N/N=C(/C)c2ccccn2)CC1)c1ccccn1`, the GI50 in [1] was 9.12 µM (inactive); in assay [2], 5.24 µM (inactive); in assay [3], 4.16 µM (inactive); in assay [4], 14.3 µM (inactive); in [5], 15.9 µM (inactive); in assay [6], 7.33 µM (inactive). Besides, the GI50 in assay [7] is 12.1 µM (inactive); in assay [8], 4.16 µM (inactive); in [9], 15.6 µM (inactive); in assay [10], 6.89 µM (inactive); in assay [11], 3.01 µM (inactive); in assay [12], 14.3 µM (inactive). In addition, the GI50 in assay [13] is 4.13 µM (inactive); in assay [14] it was > 46.2 µM (inactive); in assay [15] it was > 100 µM (inactive); in [16], 5.86 µM (inactive); in assay [17], 17.7 µM (inactive); in assay [18] it was > 66.8 µM (inactive). Besides, the GI50 in assay [19] was 6.25 µM (inactive).

Take `O=C1/C(=C\c2ccc(Cl)cc2)N=C(c2ccccc2)N1n1c(=O)cn[nH]c1=S`: the GI50 in assay [1] was > 100 µM (inactive); in [2] it was 18.4 µM (inactive); in assay [3], 45 µM (inactive); in assay [4], 39.7 µM (inactive); in assay [5] it was 28.5 µM (inactive); in assay [6], 37.7 µM (inactive). Further, the GI50 in assay [7] is 18.4 µM (inactive); in assay [8], > 100 µM (inactive); in assay [9] it was > 100 µM (inactive); in assay [10] it was 68.2 µM (inactive); in assay [11], 27.4 µM (inactive); in [12], > 100 µM (inactive). Besides, the GI50 in assay [13] is 21.8 µM (inactive); in assay [15], > 100 µM (inactive); in assay [16], 19.8 µM (inactive); in assay [20] it was 22.5 µM (inactive); in [17], 18.5 µM (inactive); in assay [18], > 100 µM (inactive). Also, in assay [19], the GI50 was > 100 µM (inactive).

On to `CC(C)OP(=O)(OC(C)C)C(C(C)C)N(C)/C(F)=N/C(F)(F)F` (stereo not given), for which the GI50 in assay [1], in assay [2], in assay [3], in assay [4], in [5] and in assay [6] was > 100 µM (inactive) throughout. In addition, the GI50 in assay [8], in assay [9], in [10], in assay [11], in assay [12] and in assay [13] was > 100 µM (inactive) each time. Moreover, the GI50 in [14], in assay [16], in [17], in assay [18] and in [19] was > 100 µM (inactive) throughout.

Take `c1cncc(-c2ncc3cccnc3n2)c1`: the GI50 in assay [1], in assay [2], in assay [3], in [4], in [5] and in assay [6] was > 100 µM (inactive) in each case. Moreover, the GI50 in [7], in assay [8], in assay [9], in [10], in assay [11] and in assay [13] was > 100 µM (inactive) throughout. Besides, the GI50 in [14] is > 100 µM (inactive); in assay [15], > 100 µM (inactive); in [16] it was 43.4 µM (inactive); in [17], > 100 µM (inactive); in [18] it was > 100 µM (inactive); in assay [19], > 100 µM (inactive).

For the molecule `CC(N)(CC(O)(C(F)(F)Cl)C(F)(F)Cl)C(=O)O` (stereo not given), the GI50 in [1], in assay [2], in assay [3], in assay [4], in assay [5] and in assay [6] was > 10 µM (inactive) throughout. In addition, the GI50 in assay [8], in assay [9], in assay [10], in assay [11], in [12] and in assay [13] was > 10 µM (inactive) each time. Also, the GI50 in [14], in [16], in assay [20], in [17], in assay [18] and in [19] was > 10 µM (inactive) each time.

On to `NNC(=O)c1ccc[n+](CCc2ccccc2)c1`, for which the GI50 in assay [1], in assay [2], in assay [3], in [4], in assay [5] and in assay [6] was > 100 µM (inactive) in each case. In addition, the GI50 in assay [7], in assay [8], in [9], in assay [10], in [11] and in [12] was > 100 µM (inactive) throughout. Besides, the GI50 in assay [13], in assay [14], in assay [16], in assay [17], in [18] and in [19] was > 100 µM (inactive) throughout.

As to `COC(=O)c1ccccc1C1CN=NC12Cc1ccc3c(c1C2=O)CCC3` (stereo not given), the GI50 in [1] was > 100 µM (inactive); in [2], 34.9 µM (inactive); in assay [3] it was 19.5 µM (inactive); in assay [4], 49.3 µM (inactive); in assay [5] it was > 100 µM (inactive); in assay [6], 82 µM (inactive). For the same molecule, the GI50 is > 100 µM (inactive) in assay [8]; > 100 µM (inactive) in [9]; 39.3 µM (inactive) in assay [10]; 6.92 µM (inactive) in assay [11]; > 100 µM (inactive) in assay [12]; 94.4 µM (inactive) in assay [13]. Further, the GI50 was 23.1 µM (inactive) in assay [14]; > 100 µM (inactive) in assay [15]; > 100 µM (inactive) in [16]; > 100 µM (inactive) in [17]; > 100 µM (inactive) in assay [18]; 70.6 µM (inactive) in assay [19].

Regarding `Oc1ccc([C@H]2c3c(O)cc(O)cc3C3c4c(cc(O)cc4[C@@H]2[C@H]2c4cc(O)cc5c4C(c4cc(O)cc(O)c4[C@@H]2c2ccc(O)cc2)[C@@H](c2ccc(O)cc2)O5)O[C@@H]3c2ccc(O)cc2)cc1` (stereo not given in full), the GI50 in assay [1] is 0.634 µM (active); in assay [2], 0.955 µM (active); in [3], > 100 µM (inactive); in assay [4] it was 0.391 µM (active); in assay [5], > 100 µM (inactive); in assay [6], 0.861 µM (active). The GI50 in assay [7] was 41.4 µM (inactive); in assay [8] it was 0.348 µM (active); in assay [9], 0.29 µM (active); in assay [10] it was 0.861 µM (active); in [11], 0.569 µM (active); in assay [12] it was 0.182 µM (active). Besides, the GI50 is 2.69 µM (inactive) in assay [13]; 1.58 µM (inactive) in [15]; 2.99 µM (inactive) in [16]; 16.9 µM (inactive) in [20]; 6.73 µM (inactive) in assay [17]; 0.678 µM (active) in assay [18]. The GI50 in assay [19] is 3.86 µM (inactive).

For the molecule `O=C(O)C1C(C(=O)Nc2ccc3c(c2)Cc2ccccc2-3)C2(Cl)C(Cl)=C(Cl)C1(Cl)C2(Cl)Cl` (stereo not given), the GI50 in assay [1] was 33.3 µM (inactive); in [2] it was 22.5 µM (inactive); in assay [3], 36.6 µM (inactive); in assay [4], 15.6 µM (inactive); in [5] it was 19.1 µM (inactive); in [6], 20.3 µM (inactive). Further, the GI50 in [7] was 14.6 µM (inactive); in assay [8], 17.6 µM (inactive); in [9], 34.4 µM (inactive); in assay [10], 18.7 µM (inactive); in assay [11] it was 17.6 µM (inactive); in [12] it was 21.5 µM (inactive). Besides, the GI50 in assay [13] was 20.3 µM (inactive); in assay [14], 21.5 µM (inactive); in assay [15], 19.1 µM (inactive); in assay [16] it was 31.1 µM (inactive); in assay [17] it was 20 µM (inactive); in [18], 20.4 µM (inactive). The GI50 in [19] was 39.1 µM (inactive).

For the molecule `O=C(c1cc(Cl)cc(Cl)c1)N(C(=O)N1CCN(c2ccccc2)CC1)c1ccccc1`, the GI50 in [1] is 23.2 µM (inactive); in assay [2], 29.9 µM (inactive); in assay [3] it was 25.6 µM (inactive); in assay [4] it was 25.1 µM (inactive); in [5], 48.1 µM (inactive); in assay [6], 25.6 µM (inactive). Further, the GI50 in assay [8] is 17.3 µM (inactive); in assay [9], 20.7 µM (inactive); in assay [10], 24.3 µM (inactive); in [11], 66.1 µM (inactive); in assay [12], 56.1 µM (inactive); in [13], 53.5 µM (inactive). Further, the GI50 is 34.5 µM (inactive) in [14]; 24.8 µM (inactive) in [15]; 80.9 µM (inactive) in [16]; 22.3 µM (inactive) in [18]; 37.2 µM (inactive) in assay [19].

As to `CCOC(=O)CCC(NC(=O)Cc1ccc(Nc2nc3ccccc3nc2-c2ccccc2)cc1)C(=O)OCC` (stereo not given), the GI50 is 79.6 µM (inactive) in assay [1]; > 100 µM (inactive) in assay [2]; 50.5 µM (inactive) in assay [3]; 17.4 µM (inactive) in assay [4]; 46.8 µM (inactive) in assay [5]; > 100 µM (inactive) in assay [6]. Also, the GI50 in [8] is > 100 µM (inactive); in assay [9], 63 µM (inactive); in assay [10], > 100 µM (inactive); in assay [12], > 100 µM (inactive); in assay [13], 25.2 µM (inactive); in assay [14], 18.8 µM (inactive). In addition, the GI50 in assay [15] was 16.5 µM (inactive); in assay [16], > 100 µM (inactive); in assay [20], > 100 µM (inactive); in assay [17], 51.8 µM (inactive); in [18] it was 93.8 µM (inactive); in assay [19] it was 16.1 µM (inactive).
